From patent US7820196B2, “Physiologically active agents containing vicinal dithioglycols and use thereof in various branches of economy” (priority 1999, dated 2010)

System: broiler chickens
Assay: Example 6: effect of unithiol on productivity and meat quality of broiler chickens
Type: in vivo
Parameters: average daily gain: unit not given here
Procedure: An experiment was conducted, on the inventors' initiative, on the experimental base of the All-Russia research and technological institute for aviculture (VNITIP) during which a study was given to the following tasks: • determination of an effect produced by unithiol (DMPS) on the productivity and meat quality of broiler chickens; • effect produced by unithiol on the accumulation of heavy metal compounds (mercury, cadmium, lead) in various tissues of poultry.
The experiment was carried out in a vivarium on broiler chickens of one cross. Poultry was grown in cell batteries from one day to six-week age. The operating parameters and feeding level met the recommendation VNITIP 1999. The experiment was conducted according to the diagram on Table 1.
The poultry population: 1 and 2 groups, 35 heads each; 3,4,5 groups—6 heads each.
1. Chicks' individual live weight; weighing at the age of one day, 2-, 4-, 6 weeks.
2. Average daily live weight increase of the broilers over a 6-week period.
3. Safety of the poultry population, the daily record keeping of the broilers lost, with the causes of murrain established.
4. Feathering conditions, individual evaluation.
5. Feed consumption over a period of growing by way of the daily record keeping and weighing of specifies feed for each and every group, as calculated per head and per kg of live weight increase.
6. Dressed small carcass mass, individually weighing in slaughtering at the age of 6 weeks.
7. Dressed yield of meat as calculated.
8. Classification of small carcasses according to GOST 25391-82.
9. Meat qualities by way of anatomically dressing the small carcasses of broilers.
10. Chemical meat composition on terms of a dry substance.
12. Fatty acid meat composition.

[1] = Group 2: BR + 17 mg unithiol/kg feed days 15-42
[2] = Group 4: BR + heavy metals + 17 mg unithiol/kg feed, both days 15-42
[3] = Group 5: BR + heavy metals days 15-35, 34 mg unithiol/kg feed days 36-42
[4] = age 4 weeks, Group 2: BR + 17 mg unithiol/kg feed days 15-42
[5] = age 4 weeks, Group 4: BR + heavy metals + 17 mg unithiol/kg feed, both days 15-42
[6] = age 6 weeks, Group 2: BR + 17 mg unithiol/kg feed days 15-42
[7] = age 6 weeks, Group 4: BR + heavy metals + 17 mg unithiol/kg feed, both days 15-42
[8] = age 6 weeks, Group 5: BR + heavy metals days 15-35, 34 mg unithiol/kg feed days 36-42

With O=S(=O)([O-])CC(S)CS.[Na+] (stereo not shown) [Unithiol, Sodium 2,3-Dimercaptopropane sulfonate] the feathering conditions (2nd group) was “best value of feathering conditions”, the “feed remuneration with products” value (4th and 5th groups, unithiol as additive in feed) was “improved feed remuneration with products” and the “organoleptic indices of meat (taste, organoleptic qualities of broths)” value (5nd group, unithiol additionally to feed) was “highest value as to organoleptic indices”. The rates of growth (Group 2: 17 mg/kg of feed since 2-week age) was “higher rates of growth”, the “Dressed carcasses, weight” value [1] was 1310 gr and the “Feed consumption per head” value [1] was 3670 gr. The “Feed consumption per kg of gain in live weight” value (shortened to “Feed consumption per kg of gain”) [1] was 1.98 kg, the Inflamed sores [1] was 14.2% and the “Meat category 1” value [1] was 88.6%. For the same compound, the “Meat category 2” value [1] was 11.4%, the Meat yield [1] was 69.3% and the “chemical meat composition: Ash” value [1] was 0.99%. For the same compound, the “chemical meat composition: Dry substance” value [1] was 28.46%, the “chemical meat composition: Fat” value [1] was 7.79% and the “chemical meat composition: Protein” value [1] was 19.68%. For the same compound, the “chemical meat composition: Water” value [1] was 70.4%, the “fatty acid meat composition: Fatty acids (total)” value [1] was 29.58 mg per 100 gr of product and the “fatty acid meat composition: Heptadecanoic” value [1] was 0.24 mg per 100 gr of product. For the same compound, the “fatty acid meat composition: Heptadecynoic” value [1] was 0.14 mg per 100 gr of product, the “fatty acid meat composition: Isomyristic” value [1] was 0.16 mg per 100 gr of product and the “fatty acid meat composition: Isopentadecanoic” value [1] was 0.14 mg per 100 gr of product. For the same compound, the “fatty acid meat composition: Linoleic” value [1] was 6.41 mg per 100 gr of product, the “fatty acid meat composition: Linolenic” value [1] was 0.29 mg per 100 gr of product and the “fatty acid meat composition: Myristic” value [1] was 0.22 mg per 100 gr of product. For the same compound, the “fatty acid meat composition: Oleic” value [1] was 0.13 mg per 100 gr of product, the “fatty acid meat composition: Palmitic” value [1] was 7.05 mg per 100 gr of product and the “fatty acid meat composition: Palmitoleic” value [1] was 2.25 mg per 100 gr of product. For the same compound, the “fatty acid meat composition: Pentadecanoic” value [1] was 0.12 mg per 100 gr of product, the “fatty acid meat composition: Polyunsaturated” value [1] was 6.70 mg per 100 gr of product and the “fatty acid meat composition: Saturated and monounsaturated” value [1] was 22.88 mg per 100 gr of product. For the same compound, the “fatty acid meat composition: Stearic” value [1] was 2.44 mg per 100 gr of product, the “Dressed carcasses, weight” value [2] was 1217 gr and the “Feed consumption per head” value [2] was 3750 gr. The “Feed consumption per kg of gain” value [2] was 2.13 kg, the “Meat category 1” value [2] was 66.7% and the “Meat category 2” value [2] was 33.3%. For the same compound, the Meat yield [2] was 67.6%, the “chemical meat composition: Ash” value [2] was 1.07% and the “chemical meat composition: Dry substance” value [2] was 25.71%. The “chemical meat composition: Fat” value [2] was 2.72%, the “chemical meat composition: Protein” value [2] was 21.92% and the “chemical meat composition: Water” value [2] was 73.0%. For the same compound, the “fatty acid meat composition: Fatty acids (total)” value [2] was 26.96 mg per 100 gr of product, the “fatty acid meat composition: Heptadecanoic” value [2] was 0.41 mg per 100 gr of product and the “fatty acid meat composition: Heptadecynoic” value [2] was 0.11 mg per 100 gr of product. The “fatty acid meat composition: Isomyristic” value [2] was 0.06 mg per 100 gr of product, the “fatty acid meat composition: Isopentadecanoic” value [2] was 0.03 mg per 100 gr of product and the “fatty acid meat composition: Linoleic” value [2] was 6.30 mg per 100 gr of product. For the same compound, the “fatty acid meat composition: Linolenic” value [2] was 0.25 mg per 100 gr of product, the “fatty acid meat composition: Myristic” value [2] was 0.15 mg per 100 gr of product and the “fatty acid meat composition: Oleic” value [2] was 8.39 mg per 100 gr of product. For the same compound, the “fatty acid meat composition: Palmitic” value [2] was 6.13 mg per 100 gr of product, the “fatty acid meat composition: Palmitoleic” value [2] was 1.71 mg per 100 gr of product and the “fatty acid meat composition: Pentadecanoic” value [2] was 0.05 mg per 100 gr of product. For the same compound, the “fatty acid meat composition: Polyunsaturated” value [2] was 6.55 mg per 100 gr of product, the “fatty acid meat composition: Saturated and monounsaturated” value [2] was 20.41 mg per 100 gr of product and the “fatty acid meat composition: Stearic” value [2] was 3.37 mg per 100 gr of product. For the same compound, the “Dressed carcasses, weight” value [3] was 1215 gr, the “Feed consumption per head” value [3] was 3780 gr and the “Feed consumption per kg of gain” value [3] was 2.17 kg. For the same compound, the “Meat category 1” value [3] was 60.0%, the “Meat category 2” value [3] was 40.0% and the Meat yield [3] was 68.3%. For the same compound, the “chemical meat composition: Ash” value [3] was 1.14%, the “chemical meat composition: Dry substance” value [3] was 25.18% and the “chemical meat composition: Fat” value [3] was 2.52%. The “chemical meat composition: Protein” value [3] was 21.52%, the “chemical meat composition: Water” value [3] was 73.28% and the “fatty acid meat composition: Fatty acids (total)” value [3] was 26.71 mg per 100 gr of product. The “fatty acid meat composition: Heptadecanoic” value [3] was 0.14 mg per 100 gr of product, the “fatty acid meat composition: Heptadecynoic” value [3] was 0.08 mg per 100 gr of product and the “fatty acid meat composition: Isomyristic” value [3] was 0.06 mg per 100 gr of product. For the same compound, the “fatty acid meat composition: Isopentadecanoic” value [3] was 0.06 mg per 100 gr of product, the “fatty acid meat composition: Linoleic” value [3] was 6.54 mg per 100 gr of product and the “fatty acid meat composition: Linolenic” value [3] was 0.18 mg per 100 gr of product. The “fatty acid meat composition: Myristic” value [3] was 1.29 mg per 100 gr of product, the “fatty acid meat composition: Oleic” value [3] was 7.40 mg per 100 gr of product and the “fatty acid meat composition: Palmitic” value [3] was 5.73 mg per 100 gr of product. For the same compound, the “fatty acid meat composition: Palmitoleic” value [3] was 1.59 mg per 100 gr of product, the “fatty acid meat composition: Pentadecanoic” value [3] was 0.07 mg per 100 gr of product and the “fatty acid meat composition: Polyunsaturated” value [3] was 6.72 mg per 100 gr of product. The “fatty acid meat composition: Saturated and monounsaturated” value [3] was 19.99 mg per 100 gr of product, the “fatty acid meat composition: Stearic” value [3] was 3.57 mg per 100 gr of product and the average daily gain (age 1-6 weeks, Group 2: BR + 17 mg unithiol/kg feed days 15-42) was 44.0. For the same compound, the average daily gain (age 1-6 weeks, Group 4: BR + heavy metals + 17 mg unithiol/kg feed, both days 15-42) was 41.8, the average daily gain (age 1-6 weeks, Group 5: BR + heavy metals days 15-35, 34 mg unithiol/kg feed days 36-42) was 41.4 and the average daily gain (age 2-4 weeks, Group 2: BR + 17 mg unithiol/kg feed days 15-42) was 47.1. The average daily gain (age 2-4 weeks, Group 4: BR + heavy metals + 17 mg unithiol/kg feed, both days 15-42) was 42.7, the average daily gain (age 4-6 weeks, Group 2: BR + 17 mg unithiol/kg feed days 15-42) was 64.1 and the average daily gain (age 4-6 weeks, Group 4: BR + heavy metals + 17 mg unithiol/kg feed, both days 15-42) was 62.1. The average daily gain (age 4-6 weeks, Group 5: BR + heavy metals days 15-35, 34 mg unithiol/kg feed days 36-42) was 64.2, the live weight [4] was 993.4 grams and the “safety of the poultry population” value [4] was 100%. The live weight [5] was 930.0 grams, the “safety of the poultry population” value [5] was 100% and the live weight [6] was 1890.5 grams. The “safety of the poultry population” value [6] was 100%, the live weight [7] was 1880.0 grams and the “safety of the poultry population” value [7] was 100%. For the same compound, the live weight [8] was 1780.0 grams, the “safety of the poultry population” value [8] was 83.3% and the “dressed yield of meat and fatness” value (application of unithiol) was “highest level of the dressed yield of meat and also good fatness”. For the same compound, the “chemical and fatty acid meat composition” value (unithiol in the composition of feed) was “increased polyunsaturated fatty acid content in chicken meat”.
